Assay results: publication PMC4412257, “2′,6′-Dimethylphenylalanine: A Useful Aromatic Amino Acid Surrogate for Tyr or Phe Residue in Opioid Peptides” (International Journal of Medicinal Chemistry, 2012)
Like-named read-outs stand apart in the source and are kept apart here.

Legend:
δ-opioid receptor [1] = settings: cited from earlier work; for Ki: versus [3H]DT, read-out: Receptor binding affinity, Ki ± S.E., δ; for μ/δ: ratio of Ki values
δ-opioid receptor [2] = assay: δ-opioid receptor binding, brain homogenate, versus [3H]DT; parameters: species or system rat; settings: ratio of Ki values
Experimental: The receptor-binding affinities of synthetic analogs were determined using rat brain, as previously reported [45].

μ-opioid receptor [3] = settings: cited from earlier work; for Ki: versus [3H]DAMGO, read-out: Receptor binding affinity, Ki ± S.E., μ
[4] = molecular target: MVD (δ): mouse vas deferens, δ-receptors; settings: cited from earlier work; for Ke of CTAP against the peptide, MVD: antagonist CTAP (μ); for Ke of CTAP against the peptide, MVD / Ke of N,N(Me)2Dmt-Tic-OH against the peptide, MVD: MVD assay; for Ke of N,N(Me)2Dmt-Tic-OH against the peptide, MVD: antagonist N,N(Me)2Dmt-Tic-OH (δ); for GPI/MVD: ratio of IC50 values
[5] = test system: GPI (μ): guinea pig ileum, predominantly μ-receptors; settings: cited from earlier work; for Ke of CTAP against the peptide, GPI: antagonist CTAP (μ), GPI assay; for MVD/GPI: ratio of IC50 values
[6] = test system: MVD (δ): mouse vas deferens, δ-receptors; assay: isolated mouse vas deferens (MVD) assay; assay type: cell-based; settings: ratio of IC50 values
Experimental: (§1) The receptor-binding affinities of synthetic analogs were determined using rat brain, as previously reported. […] The GPI tissue contains predominantly μ-receptors, while MVD tissue contains δ-receptors. […] In contrast, 11 was devoid of activity in both assays, as expected from the binding data. […] This analog turned out to be a potent μ-antagonist and a weak δ-antagonist. […] The results of 13 are in line with observations that Dmt-D-Phe-NH2 and its C-terminally extended analog are μ-receptor antagonists.

[7] = test system: GPI (μ): guinea pig ileum, predominantly μ-receptors; assay: isolated guinea pig ileum (GPI) assay; assay type: cell-based; settings: ratio of IC50 values
Experimental: as §1

mice = test system: mice; parameters: method as in PMID 12657261; settings: formalin test in mice, subcutaneous injection, cited from earlier work
μ-opioid receptor [8] = assay: μ-opioid receptor binding, brain homogenate, versus [3H]DAMGO; parameters: species or system rat; settings: ratio of Ki values
Experimental: as §1
Two methyl groups on Dmp^4 may interfere with the receptor interaction due to a reduction in conformational flexibility and/or enhanced lipophilicity. To further examine the usefulness of Dmp-containing DYN peptides as κ-opioid receptor ligands, the in vitro bioactivity of DYN peptides was determined using the GPI assay (Table 5).

For [Dmp^1]ENK [compound 32], the Ki (δ-opioid receptor [1]; Table 6) is given as 1.86 ± 0.61 nM, the μ/δ (δ-opioid receptor [2]; Table 6) is given as 3.19 and the Ki (μ-opioid receptor [3]; Table 6) is given as 5.94 ± 1.45 nM. For the same substance, the IC50 ([4]; Table 6) was 66.6 ± 12.7 nM, the IC50 ([5]; Table 6) was 710 ± 69 nM and the GPI/MVD ([6]; Table 6) was 10.66.

In the case of [Dmp^1]YRFB [compound 24], the MVD/GPI ([7]; Table 6) is listed as 19, the Ki (δ-opioid receptor [1]; Table 6) is listed as 2570 ± 947 nM and the “ED50, First phase” value (mice) is listed as 1946 nmol/kg. The “ED50, Second phase” value (mice) was 1529 nmol/kg, the Ki (μ-opioid receptor [3]; Table 6) was 0.0623 ± 0.014 nM and the IC50 ([4]; Table 6) was 188 ± 52 nM. For the same substance, the “Ke of CTAP against the peptide, MVD” value [4] was 13.4 nM, the “Ke of N,N(Me)2Dmt-Tic-OH against the peptide, MVD” value (shortened to “Ke of N,N(Me)2Dmt-Tic-OH”) [4] was greater than 1000 nM and the δ/μ (μ-opioid receptor [8]; Table 6) was 41284. For the same substance, the IC50 ([5]; Table 6) was 9.88 ± 1.04 nM and the “Ke of CTAP against the peptide, GPI” value [5] was 25.1 nM.

For [Dmp^3]DM [compound 18], the MVD/GPI ([7]; Table 1) is listed as 3.8, the Ki (δ-opioid receptor [1]; Table 1, rat brain) is listed as 45.7 ± 11.8 nM and the IC50 ([4]; Table 1) is listed as 4.62 ± 0.82 nM. For the same substance, the δ/μ (μ-opioid receptor [8]; Table 1) was 84630 and the IC50 ([5]; Table 1) was 1.21 ± 0.23 nM.

In the case of [Dmp^3]DT [compound 20], the Ki (δ-opioid receptor [1]; Table 1, rat brain) is given as 0.00105 ± 0.00043 nM, the Ki (μ-opioid receptor [3]; Table 1, rat brain) is given as 1100 ± 111 nM and the IC50 ([4]; Table 1) is given as 0.022 ± 0.003 nM. The IC50 ([5]; Table 1) was 6700 ± 992 nM.

For [Dmp^3]EM2 [compound 14], the MVD/GPI ([7]; Table 1) is given as 3.68, the Ki (δ-opioid receptor [1]; Table 1, rat brain) is given as 1060 ± 336 nM and the Ki (μ-opioid receptor [3]; Table 1, rat brain) is given as 0.0304 ± 0.0208 nM. For the same substance, the δ/μ (μ-opioid receptor [8]; Table 1) was 34967 and the IC50 ([5]; Table 1) was 0.378 ± 0.104 nM.

In the case of [Dmp^3]YRFB [compound 22], the MVD/GPI ([7]; Table 1) is given as 16.7, the Ki (δ-opioid receptor [1]; Table 1, rat brain) is given as 544 ± 143 nM and the “ED50, First phase” value (mice) is given as 98.6 nmol/kg. The “ED50, Second phase” value (mice) was 113 nmol/kg, the Ki (μ-opioid receptor [3]; Table 1, rat brain) was 0.035 ± 0.0167 nM and the IC50 ([4]; Table 1) was 27.9 ± 5 nM. For the same substance, the “Ke of CTAP against the peptide, MVD” value [4] was 11.4 nM, the “Ke of N,N(Me)2Dmt-Tic-OH” value [4] was greater than 1000 nM and the δ/μ (μ-opioid receptor [8]; Table 1) was 15543. The IC50 ([5]; Table 1) was 1.67 ± 0.24 nM and the “Ke of CTAP against the peptide, GPI” value [5] was 22.7 nM.

For [Dmp^4]EM2 [compound 16], the MVD/GPI ([7]; Table 1) is listed as 1.63, the Ki (δ-opioid receptor [1]; Table 1, rat brain) is listed as 7620 ± 2570 nM and the Ki (μ-opioid receptor [3]; Table 1, rat brain) is listed as 13.2 ± 1.9 nM. The IC50 ([4]; Table 1) was 320 ± 55 nM, the δ/μ (μ-opioid receptor [8]; Table 1) was 578 and the IC50 ([5]; Table 1) was 196 ± 40 nM.

For [Dmp^4]ENK [compound 10], the Ki (δ-opioid receptor [1]; Table 1, rat brain) is listed as 17.7 ± 4.2 nM, the μ/δ (δ-opioid receptor [2]; Table 1) is listed as 0.07 and the Ki (μ-opioid receptor [3]; Table 1, rat brain) is listed as 1.25 ± 0.29 nM. The IC50 ([4]; Table 1) was 624 ± 103 nM, the IC50 ([5]; Table 1) was 808 ± 101 nM and the GPI/MVD ([6]; Table 1) was 1.29.

In the case of [Dmt^1, D-Dmp^4]ENK [compound 13], the Ki (δ-opioid receptor [1]; Table 1, rat brain) is given as 40.9 ± 11.5 nM, the μ/δ (δ-opioid receptor [2]; Table 1) is given as 0.14 and the Ki (μ-opioid receptor [3]; Table 1, rat brain) is given as 5.61 ± 0.59 nM. For the same substance, the IC50 ([4]; Table 1) was greater than 10000 nM, the “pA2 (δ antagonism)” value ([4]; against DT as a δ agonist in the MVD assay) was 5.57 and the IC50 ([5]; Table 1) was greater than 10000 nM. The “pA2 (μ antagonism)” value ([5]; against EM2 as a μ agonist in the GPI assay) was 6.90.

In the case of [Dmt^1, Dmp^4]ENK [compound 12], the μ/δ (δ-opioid receptor [2]; Table 1) is listed as 0.19, the Ki (μ-opioid receptor [3]; Table 1, rat brain) is listed as 0.03 ± 0.011 nM and the IC50 ([4]; Table 1) is listed as 1.45 ± 0.26 nM. For the same substance, the IC50 ([5]; Table 1) was 2 ± 0.51 nM and the GPI/MVD ([6]; Table 1) was 1.38.

In the case of [Dmt^1]DT [compound 36], the Ki (δ-opioid receptor [1]; Table 6) is listed as 0.012 ± 0.002 nM, the μ/δ (δ-opioid receptor [2]; Table 6) is listed as 21.8 and the Ki (μ-opioid receptor [3]; Table 6) is listed as 0.261 ± 0.06 nM. For the same substance, the IC50 ([4]; Table 6) was 0.052 ± 0.007 nM, the IC50 ([5]; Table 6) was 88.4 ± 22.7 nM and the GPI/MVD ([6]; Table 6) was 1700.

For [Dmt^1]EM2 [reference compound], the Ki (μ-opioid receptor [3]; Table 6, footnote d) is listed as 0.15 ± 0.04 nM, the IC50 ([4]; Table 6, footnote d) is listed as 1.87 ± 0.61 nM and the IC50 ([5]; Table 6, footnote d) is listed as 0.07 ± 0.02 nM. For the same substance, the MVD/GPI ([5]; Table 6, footnote d) was 26.7.

For [Dmt^1]ENK [reference compound], the μ/δ (δ-opioid receptor [1]; Table 1, footnote c) is listed as 0.22, the Ki (δ-opioid receptor [1]; Table 1, footnote c) is listed as 0.031 ± 0.011 nM and the μ/δ (δ-opioid receptor [1]; Table 6, footnote c) is listed as 0.22. The Ki (δ-opioid receptor [1]; Table 6, footnote c) was 0.031 ± 0.011 nM, the Ki (μ-opioid receptor [3]; Table 1, footnote c) was 0.0068 ± 0.003 nM and the Ki (μ-opioid receptor [3]; Table 6, footnote c) was 0.0068 ± 0.003 nM. For the same substance, the IC50 ([4]; Table 1, footnote c) was 0.17 ± 0.02 nM, the GPI/MVD ([4]; Table 1, footnote c) was 3.24 and the IC50 ([4]; Table 6, footnote c) was 0.17 ± 0.02 nM. For the same substance, the GPI/MVD ([4]; Table 6, footnote c) was 3.24, the IC50 ([5]; Table 1, footnote c) was 0.55 ± 0.17 nM and the IC50 ([5]; Table 6, footnote c) was 0.55 ± 0.17 nM.

In the case of [Dmt^1]YRFB [reference compound], the Ki (δ-opioid receptor [1]; Table 6, footnote c) is listed as 1.13 ± 0.13 nM, the δ/μ (μ-opioid receptor [3]; Table 6, footnote c, ratio of Ki values) is listed as 551 and the Ki (μ-opioid receptor [3]; Table 6, footnote c) is listed as 0.00205 ± 0.00069 nM. The IC50 ([4]; Table 6, footnote c) was 0.398 ± 0.085 nM, the “Ke of CTAP against the peptide, MVD” value [4] was 7.89 nM and the “Ke of N,N(Me)2Dmt-Tic-OH” value [4] was 192 nM. The IC50 ([5]; Table 6, footnote c) was 0.034 ± 0.065 nM, the MVD/GPI ([5]; Table 6, footnote c) was 11.7 and the “Ke of CTAP against the peptide, GPI” value [5] was 85.5 nM.

In the case of [Phe^1]DT [compound 37], the Ki (δ-opioid receptor [1]; Table 6) is given as 2.68 ± 1.22 nM, the Ki (μ-opioid receptor [3]; Table 6) is given as greater than 2180 nM and the IC50 ([4]; Table 6) is given as 10.4 ± 1.5 nM. For the same substance, the IC50 ([5]; Table 6) was greater than 10000 nM.

For [Phe^1]EM2 [compound 40], the MVD/GPI ([7]; Table 6) is listed as 4.85, the Ki (δ-opioid receptor [1]; Table 6) is listed as 18900 nM and the Ki (μ-opioid receptor [3]; Table 6) is listed as 54.1 ± 23.4 nM. The IC50 ([4]; Table 6) was 5200 nM, the δ/μ (μ-opioid receptor [8]; Table 6) was 348 and the IC50 ([5]; Table 6) was 1070 ± 309 nM.

For [Phe^1]ENK [compound 33], the Ki (δ-opioid receptor [1]; Table 6) is given as 73.7 ± 19.5 nM, the μ/δ (δ-opioid receptor [2]; Table 6) is given as 2.29 and the Ki (μ-opioid receptor [3]; Table 6) is given as 169 ± 12 nM. For the same substance, the IC50 ([4]; Table 6) was greater than 10000 nM and the IC50 ([5]; Table 6) was greater than 10000 nM.

In the case of [Phe^1]YRFB [compound 42], the MVD/GPI ([7]; Table 6) is listed as 11.2, the Ki (δ-opioid receptor [1]; Table 6) is listed as greater than 2820 nM and the Ki (μ-opioid receptor [3]; Table 6) is listed as 7.17 ± 1.03 nM. The IC50 ([4]; Table 6) was 7140 ± 950 nM, the δ/μ (μ-opioid receptor [8]; Table 6) was greater than 393 and the IC50 ([5]; Table 6) was 633 ± 89 nM.
